Source: PubChem BioAssay AID2060884 (Molecular Pharmacology Branch, DTP, NCI, 2025)
One block for each molecule: values may come before it.

Tested on: NCI-H929 complex spheroids, viability % test/control
Experiment: Anticancer human tumor NCI-H929 cell line growth inhibition [RAS];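 further: compound exposure lasted seven days before viability was read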;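 on viability, T/C: 100% = DMSO vehicle control viability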
Settings: for IC50: curve of first compound; for viability, T/C: stronger effect = lower value
Method in brief: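 Tumour cells grown as complex spheroids with HUVEC endothelial cells and mesenchymal stem cells, treated with RAS pathway inhibitor combinations. Each agent spans half-log steps from near clinical Cmax, or 10 microM where Cmax is unknown.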

IC50 (second compound 0.00316 µM): > 1 µM
IC50 (second compound 0.01 µM): > 1 µM
IC50 (second compound 0.0316 µM): > 1 µM
IC50 (second compound 0.1 µM): > 1 µM
IC50 (second compound 0.316 µM): > 1 µM
IC50 (second compound 1 µM): > 1 µM
Compound: C=CC(=O)Nc1cc(Nc2nccc(-c3cn(C)c4ccccc34)n2)c(OC)cc1N(C)CCN(C)C + C=CC(=O)N1CCN(c2nc(OCC3CCCN3C)nc3c(F)c(-c4nc(N)cc(C)c4C(F)(F)F)c(Cl)cc23)C(C)C1
viability, T/C (second compound 0.00316 µM, first compound 0.00316 µM): 93.4%
viability, T/C (second compound 0.00316 µM, first compound 0.01 µM): 97.7%
viability, T/C (second compound 0.00316 µM, first compound 0.0316 µM): 102%
viability, T/C (second compound 0.00316 µM, first compound 0.1 µM): 95.2%
viability, T/C (second compound 0.00316 µM, first compound 0.316 µM): 100%
viability, T/C (second compound 0.00316 µM, first compound 1 µM): 103%
viability, T/C (second compound 0.01 µM, first compound 0.00316 µM): 101%
viability, T/C (second compound 0.01 µM, first compound 0.01 µM): 100%
viability, T/C (second compound 0.01 µM, first compound 0.0316 µM): 101%
viability, T/C (second compound 0.01 µM, first compound 0.1 µM): 101%
viability, T/C (second compound 0.01 µM, first compound 0.316 µM): 99.4%
viability, T/C (second compound 0.01 µM, first compound 1 µM): 107%
viability, T/C (second compound 0.0316 µM, first compound 0.00316 µM): 95.5%
viability, T/C (second compound 0.0316 µM, first compound 0.01 µM): 99.8%
viability, T/C (second compound 0.0316 µM, first compound 0.0316 µM): 104%
viability, T/C (second compound 0.0316 µM, first compound 0.1 µM): 99.3%
viability, T/C (second compound 0.0316 µM, first compound 0.316 µM): 103%
viability, T/C (second compound 0.0316 µM, first compound 1 µM): 104%
viability, T/C (second compound 0.1 µM, first compound 0.00316 µM): 98.1%
viability, T/C (second compound 0.1 µM, first compound 0.01 µM): 101%
viability, T/C (second compound 0.1 µM, first compound 0.0316 µM): 108%
viability, T/C (second compound 0.1 µM, first compound 0.1 µM): 99.1%
viability, T/C (second compound 0.1 µM, first compound 0.316 µM): 101%
viability, T/C (second compound 0.1 µM, first compound 1 µM): 107%
viability, T/C (second compound 0.316 µM, first compound 0.00316 µM): 101%
viability, T/C (second compound 0.316 µM, first compound 0.01 µM): 104%
viability, T/C (second compound 0.316 µM, first compound 0.0316 µM): 101%
viability, T/C (second compound 0.316 µM, first compound 0.1 µM): 99.5%
viability, T/C (second compound 0.316 µM, first compound 0.316 µM): 104%
viability, T/C (second compound 0.316 µM, first compound 1 µM): 105%
viability, T/C (second compound 1 µM, first compound 0.00316 µM): 106%
viability, T/C (second compound 1 µM, first compound 0.01 µM): 106%
viability, T/C (second compound 1 µM, first compound 0.0316 µM): 107%
viability, T/C (second compound 1 µM, first compound 0.1 µM): 105%
viability, T/C (second compound 1 µM, first compound 0.316 µM): 107%
viability, T/C (second compound 1 µM, first compound 1 µM): 106%

IC50 (second compound 0.000949 µM): 0.663 µM
IC50 (second compound 0.003 µM): 0.688 µM
IC50 (second compound 0.00949 µM): 0.686 µM
IC50 (second compound 0.03 µM): 0.661 µM
IC50 (second compound 0.0949 µM): 0.636 µM
IC50 (second compound 0.3 µM): 0.597 µM
Compound: O=C(c1ccc(F)c(F)c1Nc1ccc(I)cc1F)N1CC(O)([C@@H]2CCCCN2)C1 + CCn1c(-c2cccnc2C(C)OC)c2c3cc(ccc31)N1CCOC(CC(NC(=O)C(C(C)C)N(C)C(=O)C3(F)CCN(C(=O)C#CC(C)(C)N(C)C)CC3)C(=O)N3CCCC(N3)C(=O)OCC(C)(C)C2)C1
viability, T/C (second compound 0.000949 µM, first compound 0.00316 µM): 109%
viability, T/C (second compound 0.000949 µM, first compound 0.01 µM): 97.9%
viability, T/C (second compound 0.000949 µM, first compound 0.0316 µM): 103%
viability, T/C (second compound 0.000949 µM, first compound 0.1 µM): 92.5%
viability, T/C (second compound 0.000949 µM, first compound 0.316 µM): 98.3%
viability, T/C (second compound 0.000949 µM, first compound 1 µM): 23.2%
viability, T/C (second compound 0.003 µM, first compound 0.00316 µM): 99.2%
viability, T/C (second compound 0.003 µM, first compound 0.01 µM): 102%
viability, T/C (second compound 0.003 µM, first compound 0.0316 µM): 101%
viability, T/C (second compound 0.003 µM, first compound 0.1 µM): 93.7%
viability, T/C (second compound 0.003 µM, first compound 0.316 µM): 98.4%
viability, T/C (second compound 0.003 µM, first compound 1 µM): 26.8%
viability, T/C (second compound 0.00949 µM, first compound 0.00316 µM): 97.2%
viability, T/C (second compound 0.00949 µM, first compound 0.01 µM): 102%
viability, T/C (second compound 0.00949 µM, first compound 0.0316 µM): 104%
viability, T/C (second compound 0.00949 µM, first compound 0.1 µM): 95.1%
viability, T/C (second compound 0.00949 µM, first compound 0.316 µM): 101%
viability, T/C (second compound 0.00949 µM, first compound 1 µM): 25.5%
viability, T/C (second compound 0.03 µM, first compound 0.00316 µM): 98.6%
viability, T/C (second compound 0.03 µM, first compound 0.01 µM): 100%
viability, T/C (second compound 0.03 µM, first compound 0.0316 µM): 102%
viability, T/C (second compound 0.03 µM, first compound 0.1 µM): 96.9%
viability, T/C (second compound 0.03 µM, first compound 0.316 µM): 101%
viability, T/C (second compound 0.03 µM, first compound 1 µM): 21.8%
viability, T/C (second compound 0.0949 µM, first compound 0.00316 µM): 96.6%
viability, T/C (second compound 0.0949 µM, first compound 0.01 µM): 99.7%
viability, T/C (second compound 0.0949 µM, first compound 0.0316 µM): 101%
viability, T/C (second compound 0.0949 µM, first compound 0.1 µM): 98.4%
viability, T/C (second compound 0.0949 µM, first compound 0.316 µM): 103%
viability, T/C (second compound 0.0949 µM, first compound 1 µM): 17.7%
viability, T/C (second compound 0.3 µM, first compound 0.00316 µM): 100%
viability, T/C (second compound 0.3 µM, first compound 0.01 µM): 101%
viability, T/C (second compound 0.3 µM, first compound 0.0316 µM): 101%
viability, T/C (second compound 0.3 µM, first compound 0.1 µM): 100%
viability, T/C (second compound 0.3 µM, first compound 0.316 µM): 105%
viability, T/C (second compound 0.3 µM, first compound 1 µM): 8.18%
